Consider one compound from US8372834B2, “Compositions and methods for delivery of anti-cancer agents” (University of Wollongong, priority 2007, dated 2013).

A word on the IC50: it is the concentration at which inhibition is half-maximal.

Data set [1] is described as follows: Preliminary stability study of compositions. The data set is classed as physicochemical. Conditions: three weeks, room temperature, protected from light. As to the method:
A preliminary assessment of the stability of the compositions was carried out over a period of three weeks. Test samples were manufactured using the FD2 method described above and stored at room temperature. 5-FU is known to be light sensitive and therefore the samples were protected from exposure to light. The samples were monitored at set time intervals for signs of decomposition using a solution of the equivalent concentration of 5-FU in saline (0.9%) as a control. The methods of monitoring the solutions were physical appearance (solid formation etc.), pH and UV-VIS absorbance spectroscopy (266 nm). The 5-FU solution was warmed and sonicated to dissolve any solid 5-FU that had precipitated before pH and absorbance readings.

Data set [2] has as its system MDA-MB-231. Kind of data set: In vitro cytotoxicity, MTS cell proliferation assay. The following applies: Homo sapiens, MDA-MB-231 cells, 72 h, mean IC50 ± SD, at least 3 independent experiments, read-out: IC50 (μM 5-FU). The data set is classed as cell-based. As for the experimental part:
(§1) After 72 h, cell proliferation was analysed by the MTS assay and normalised to saline control treatments (100% proliferation). ● 5-FU, ▪ 5-FU:FA, ▴ FD45c, ♦ FD50-7Sc, ? FD100HPc. Dashed lines represent the IC50 for each treatment (GraphPad). Values shown are mean±SD (n=4, except for HCT-116 FD50-7Sc and MDA-MB-231 FD100HPc where n=3)
(§2) In vitro cytotoxicity assays were carried out on 5 different carcinoma cell lines (MDA-MB-231, HCT-116, COLO-201, PC-3 and PC-14) using 3 different compositions of the invention (FD45c, FD50-7Sc and FD100HPc). MDA-MB-231 is a breast cancer cell line, HCT-116 and COLO-201 are colon cancer cell lines, PC-3 is a prostate cancer cell line and PC-14 is a non-small cell lung cancer cell line.
(§3) The levels of 5-FU and FA remained constant in each composition. For comparison, assays were also performed using a combination of 5-FU and FA (5-FU:FA), and also 5-FU only. A summary of IC50 values for all cell lines is presented in Table 1 below, and representative dose-response curves used to generate these IC50 values are presented in FIG. 3.
Background: Formazan colour is commonly taken as a measure of viable cells.

Data set [3] has as its system PC-14. The data set is described as above. The data set is classed as cell-based. Conditions: PC-14 cells. As to the method:
as §1, §2, §3

Data set [4] has as its system COLO-201. Described as above. The data set is classed as cell-based. The following applies: COLO-201 cells. As for the experimental part: as §1, §2, §3
The subject of data set [5] is HCT-116. The data set is described as above. The data set is classed as cell-based. Conditions: Homo sapiens, HCT-116 cells, 72 h, mean IC50 ± SD, at least 3 independent experiments, read-out: IC50 (μM 5-FU). As for the experimental part: as §1, §2, §3
For data set [6], the system named is PC-3. Described as above. Format: cell-based. The following applies: Homo sapiens, PC-3 cells, 72 h, mean IC50 ± SD, at least 3 independent experiments, read-out: IC50 (μM 5-FU). As for the experimental part: as §1, §2, §3
The mark [7] stands for this setting: Homo sapiens, 72 h, MTS assay, mean IC50 ± SD, at least 3 independent experiments, read-out: IC50 (μM 5-FU).

`O=c1[nH]cc(F)c(=O)[nH]1` [Composition 5-FU, 5-fluorouracil]: in data set [1], the “change in pH over time” value is recorded as “No significant change”. The “change in A266 over time (UV-VIS absorbance, 266 nm)” value in data set [1] (serial dilution) was “No overall trend of change”. The IC50 came out at 9.1 ± 1.4 µM in data set [2]; 33.4 ± 12.2 µM in data set [3] (setting [7]); 39.3 ± 13.9 µM in data set [4] (setting [7]); 4 ± 1.3 µM in data set [5]; 1.4 ± 0.8 µM in data set [6]. Further, the “effectiveness compared to 5-FU:FA” value in data set [3] (P=0.0084) and in data set [4] (P=0.0084) was “significantly less effective than 5-FU:FA” in each case.
